Laboratory results: patent US4508728A, “Method of treating inflammatory diseases” (priority 1984, dated 1985)

Legend:
surgical wounds = test: Wound healing: tensile strength of sutured surgical incision on the 7th day; assay type: in vivo, rat (Wister strain male); details: for Tensile Strength, % of control / Tensile Strength, X ± S.E.: daily for 7 days
Method: The healing effect of surgical wounds by homocarnosine was assessed in the following manner. Six-week old Wister strain male rats weighing around 170 g each were used. The rats which had their backs denuded over an extensive area by clippers were given an incision of about 4 cm by a sharp surgical knife along the dorsal medial line under ether anesthesia. A dosage of penicillin was administered to prevent the possibility of infective suppuration and the incision was uniformly sutured with silk threads at 3 spots. Homocarnosine was made into isotonic solution which was subcutaneously injected every day into 8 places on both sides of the incision equally for 7 days. Physiologic saline was employed as a control. The threads were removed 4 days after the formation of the incisions and the experimental animals were put to death on the 7th day under ether anesthesia, and 3 pieces of dosal skin, 3 cm in length and 1 cm in width each, were surgically cut off in such manner that the incision line lay at the middle of the piece. One side of each piece of skin was fixed and the other was pulled and the force required to separate the skin at the point the incision had been made was taken to indicate the tensile strength.

hemorrohoid = test: Clinical Case No. 7: hemorrhoid; assay type: in vivo, human; set-up: key: -: Non effective; +: Effective; ++: Remarkably effective; details: suppository 10 mg
Method: 1.7 g suppository, one suppository containing 10 mg homocarnosine, was used for the following patients suffering from hemorrohoid.
*Conjointly administered with 0.5% homocarnosine ointment.

dental extraction wounds = test: Clinical Case No. 1: dental extraction wound; assay type: in vivo, human; set-up: key to Cure (Wound Healing): ++: Found to be highly effective compared with ordinary therapy.; +: Effective; -: Noneffective; key to Postoperative pains, 2 hours / Postoperative pains, 12 hours / Postoperative pains, 24 hours: -: No subjective pains.; ±: Though subjective pains were present, no analgesic was used.; +: Subjective pains and an analgesic was administered
Method: 0.5% homocarnosine injection solution was administered to the wound brought about by a dental extraction.

granulation = test: Granulation formation, formalin filter paper method (FFP method), with quantitative analysis of hydroxyprolin; assay type: in vivo, rat (Wister strain male); details: for Hydroxyproline / Wet weight of granulation: once daily for 7 days
Source text: The promotive action of granulation by homocarnosine was examined by a routine formalin filter paper method (FFP method) and the quantitative analysis of hydroxyprolin. For experimental purposes, use was made of groups of 5 or 6 six-week old Wister strain male rats weighing around 170 g each. The hair was sheared from the backs of these animals using clippers and under ether anesthesia they were given an incision of about 1 cm by a shap surgical knife along the dorsal median line. A piece of filter paper (No. 26 product by Toyo Filter Paper Co.) was cut into circles having a diameter of 6.7 mm which were immersed in a 7% formalin solution. In each rat, these filter paper circles, 4 altogether, were inserted underneath the skin of the right and left scapular areas and under the skin about 4 cm to the rear or these areas, two circles on the right side and two on the left side. A dose of penicillin was given to prevent the possibility of infective suppuration subcutaneously and the incised portion was sutured by use of clips. On the second day after the insertion of formalin immersed filter paper, the sutures were removed and on the seventh day they were put to death under ether anesthesia by cutting the carotid vessels, from which the mass of granulations that had been formed by formalin immersed filter paper was taken out. After the entire granular mass containing filter paper was measured for wet weight, the mass from the left scapular area was used for the quantitative analysis of hydroxyprolin. Homocarnosine was prepared in an isotonic solution and was injected into the animals either subcutaneously or peritoneally once daily for seven days after the suture. When an oral administration was needed, it was made in a 15% solution and was poured into the esophagus. The mass of granulations freed from the filter paper was defatted by ethanol-ether and after being rendered in the gelatin state by an autoclave it was added with concentrated hydrochloric acid and was hydrolyzed overnight at a temperature of 105° to 110° C. After it was thickened and dried at 105° to 110° C., the product was added with 0.02N hydrochloric acid and its hydroxyprolin was quantified by a Hitachi-835 amino acid automatic analyzer in an effort to estimate the amount of collagen that had been synthesized.

dermatitis = test: Clinical Case No. 9: various types of dermatitis; assay type: in vivo, human; set-up: key to Effect: -: Non effective; +: Effective; ++: Remarkably effective
Source text: 0.5% homocarnosine in the form of an ointment was applied to the following patients suffering from various types of dermatitis.

decubital ulcer = test: Clinical Case No. 6: decubital ulcer; assay type: in vivo, human; set-up: key: -: Non effective; +: Effective; ++: Remarkably effective
Source text: 1% homocarnosine ointment was applied to the cases of decubital ulcer as follows.

cervical erosion = test: Clinical Case No. 5: cervical erosion; assay type: in vivo, human; details: suppository 20 mg
Method: 1.7 g suppository, one suppository containing 20 mg homocarnosine, was used for the following patients suffering from cervical erosion.

angulus infectiosus = test: Clinical Case No. 3: angulus infectiosus; assay type: in vivo, human; set-up: key: those cases in which the wounds became closed on the day following homocarnosine administration were judged as ++; those in which three applications were further needed before favorable results were obvious were judged as +
Source text: 0.5% homocarnosine in the form of a paste was applied in cases of angulus infectiosus in a dosage of 0.8 g on the basis of three times daily.
In assessing the effect of treatment, those cases in which the wounds became closed on the day following homocarnosine administration were judged as ++ and those in which three applications were further needed before favorable results were obvious were judged as +.

Solubility in water = assay type: physicochemical
herpes zoster = test: Clinical Case No. 4: herpes zoster; assay type: in vivo, human; details: person
Source text: 5% homocarnosine paste was applied to a case of herpes zoster.
Region: The herpes zoster extended from the lower part of right breast to the side of body.
Course of the complaint: The patient came for consultation after three days of subjective complaint. 1 g of 5% homocarnosine paste was applied to the diseased region.

aftha stomatitis = test: Clinical Case No. 2: aftha stomatitis; assay type: in vivo, human; set-up: key: The patients in whom the pain disappeared immediately after injection of homocarnosine solution with no subsequent pain complaints on the following day, and the ulcerated area had shrunk postoperatively were assessed as favorable ++; details: 0.1 ml of 0.5% solution injected
Method: Patients who complained of the aftha stomatitis were injected with 0.5% homocarnosine solution.
The patients in whom the pain disappeared immediately after injection of homocarnosine solution with no subsequent pain complaints on the following day, and the ulcerated area had shrunk postoperatively were assessed as favorable ++.

[1] = test system: inflammation of respiratory tract; test: Clinical Case No. 8: inflammation of respiratory tract, nebulizer; assay type: in vivo, human; set-up: key: -: Non effective; +: Effective; ++: Remarkably effective; details: 0.1% solution
Source text: 0.1% homocarnosine solution in physiological saline was used for the following patients suffering from inflammation of respiratory tract with the aid of nebulizer.

[2] = case 1, horizontal impaction, 0.3 ml of 0.5% injection solution
[3] = case 2, alveolar osteitis, 0.3 ml of 0.5% injection solution
[4] = case 3, traumatic bone fracture, 0.1 ml of 0.5% injection solution
[5] = case 4, dental root cyst, 0.2 ml of 0.5% injection solution
[6] = case 5, alveolar osteitis, 0.3 ml of 0.5% injection solution

NCCCC(=O)N[C@@H](Cc1cnc[nH]1)C(=O)O [Homocarnosine, L-histidinyl-γ-aminobutylic acid]
Tensile Strength, % of control (surgical wounds; 0.06 mg/rat i.d., 18 skins): 96.1 % of control
Tensile Strength, X ± S.E. (surgical wounds; 0.06 mg/rat i.d., 18 skins): 436.8 ± 27.6
Tensile Strength, % of control (surgical wounds; 0.6 mg/rat i.d., 15 skins): 108.6 % of control
Tensile Strength, X ± S.E. (surgical wounds; 0.6 mg/rat i.d., 15 skins): 493.3 ± 27.5
Tensile Strength, % of control (surgical wounds; 6.0 mg/rat i.d., 18 skins): 118.8 % of control
Tensile Strength, X ± S.E. (surgical wounds; 6.0 mg/rat i.d., 18 skins, p < 0.01): 539.6 ± 41.5
Effect on surgical wounds, tensile strength on the 7th day (in words) (surgical wounds; subcutaneous, 0.6 and 6.0 mg/rat): efficacy is indicated by the tensile strength of wounds on the 7th day
Effect (hemorrohoid; case 1, ractal bleeding, 1 tablet daily for 4 days, conjointly with 0.5% homocarnosine ointment): ++
Effect (hemorrohoid; case 2, inner hemorrhoids, 1 tablet daily for 14 days): ++
Cure (Wound Healing) (dental extraction wounds; [2]): ++
Postoperative pains, 2 hours (dental extraction wounds; [2]): -
Postoperative pains, 12 hours (dental extraction wounds; [2]): ±
Postoperative pains, 24 hours (dental extraction wounds; [2]): -
Cure (Wound Healing) (dental extraction wounds; [3]): ++
Postoperative pains, 2 hours (dental extraction wounds; [3]): -
Postoperative pains, 12 hours (dental extraction wounds; [3]): -
Postoperative pains, 24 hours (dental extraction wounds; [3]): -
Cure (Wound Healing) (dental extraction wounds; [4]): ++
Postoperative pains, 2 hours (dental extraction wounds; [4]): -
Postoperative pains, 12 hours (dental extraction wounds; [4]): -
Postoperative pains, 24 hours (dental extraction wounds; [4]): -
Cure (Wound Healing) (dental extraction wounds; [5]): ++
Postoperative pains, 2 hours (dental extraction wounds; [5]): -
Postoperative pains, 12 hours (dental extraction wounds; [5]): +
Postoperative pains, 24 hours (dental extraction wounds; [5]): -
Cure (Wound Healing) (dental extraction wounds; [6]): ++
Postoperative pains, 2 hours (dental extraction wounds; [6]): -
Postoperative pains, 12 hours (dental extraction wounds; [6]): -
Postoperative pains, 24 hours (dental extraction wounds; [6]): -
Hydroxyproline (granulation; 3 mg/kg i.p., 7 granuloma): 97.8 ± 10.1 % of control
Wet weight of granulation (granulation; 3 mg/kg i.p., 18 granuloma): 96.1 ± 5.6 % of control
Hydroxyproline (granulation; 10 mg/kg i.p., 9 granuloma): 127.6 ± 14.5 % of control
Wet weight of granulation (granulation; 10 mg/kg i.p., 20 granuloma, p < 0.01): 121.3 ± 5.7 % of control
Hydroxyproline (granulation; 30 mg/kg i.p., 8 granuloma): 123.9 ± 8.0 % of control
Wet weight of granulation (granulation; 30 mg/kg i.p., 19 granuloma, p < 0.025): 126.6 ± 7.3 % of control
Wet weight of granulation (granulation; 50 mg/kg i.p., 20 granuloma): 133.7 ± 7.2 % of control
Wet weight of granulation (granulation; 70 mg/kg i.p., 24 granuloma): 131.7 ± 7.8 % of control
Wet weight of granulation (granulation; 90 mg/kg i.p., 20 granuloma): 135.6 ± 7.2 % of control
Granulation formation (in words) (granulation; 10, 30, 50, 70 and 90 mg/kg (i.p.)): effective in promoting granulation formation
Hydroxyprolin amount (in words) (granulation; relative to wet weight of granulations): increased in proportion to an increase in the wet weight of granulations
Effect (dermatitis; case 1, allergic dermatitis, 0.5% ointment 1.0 g twice daily): ++
Effect (dermatitis; case 2, geriatric itchiness, 0.5% ointment 0.5 g before sleeping): ++
Partial ulcer recovery (in words) (dermatitis; case 2, geriatric itchiness, 0.5% ointment 0.5 g, partial, after one application): ulcer recovery was noted
Effect (dermatitis; case 3, eczema, 0.5% ointment 1.0 g twice daily for 2 days): ++
Effect (dermatitis; case 4, burn (back of left hand), 0.5% ointment 1.0 g once daily for 4 days): ++
Effect (decubital ulcer; case 1, back (2 × 4 cm), 1% ointment 0.5-1.0 g once daily for 4 days): ++
Effect (decubital ulcer; case 2, nates (2 × 3 cm), 1% ointment 0.5-1.0 g once daily for 8 days): ++
Effect (in words) (cervical erosion; case 1, C II, 2 tablets in one day): Cured
Effect (in words) (cervical erosion; case 2, C IIIa, 1 tablet daily for 7 days): Cured
Effect (in words) (cervical erosion; case 3, C IIIb, 2 tablets daily for 7 days): Cured
Effect (in words) (cervical erosion; case 4, C IIIc, 2 tablets daily for 14 days): Cured
Effect (angulus infectiosus; person five, right, 0.5% paste 0.8 g × 3): ++
Effect (angulus infectiosus; person four, right and left, 0.5% paste 0.8 g × 6): +
Effect (angulus infectiosus; person one, right, 0.5% paste 0.8 g × 3): ++
Effect (angulus infectiosus; person three, right, 0.5% paste 0.8 g × 3): ++
Effect (angulus infectiosus; person two, right and left, 0.5% paste 0.8 g × 6): +
Effect (angulus infectiosus; person, left, 0.5% paste 0.8 g × 3): ++
Solubility in water (Solubility in water): readily soluble in water
Relapse (herpes zoster; 1 g of 5% paste): no relapse of the symptom
Pains (herpes zoster; 1 g of 5% paste, in about one hour): the pains disappeared completely
Cysts (herpes zoster; 5% paste, 1 g five times daily): discolored and dry
Herpes symptom (herpes zoster; 5% paste, 1 g five times daily): cured after seven days
Effect (aftha stomatitis; case 1, isolative aphtha): ++
Effect (aftha stomatitis; case 2, tip of the tongue, person): ++
Effect (aftha stomatitis; case 3, lower surface of the tongue, person): ++
Effect ([1]; case 1, allergic rhinitis, 0.8 ml × 2): ++
Effect ([1]; case 2, inflamed respiratory tract, 1.0 ml × 1): ++
Effect ([1]; case 3, inflamed respiratory tract, 1.0 ml × 3): ++
Effect ([1]; case 4, tonsillitis, 1.0 ml × 3): ++
Effect ([1]; case 5, asthma, 1.0 ml twice daily for 10 days): ++
